From PMC3323742 (Biochemistry, 2012) come the findings set out here.

The target of the assay is 2-methylisoborneol synthase (MIBS), full length (Streptomyces coelicolor, UniProt Q9F1Y6, E193A). Description: GC-MS of pentane-extracted products. Format: biochemical. To be noted: 60 μM substrate, 5 μM enzyme, 10 mM MgCl2, pH 7.0, 30 °C, 12 h.
Sequence of 2-methylisoborneol synthase (MIBS), full length (Q9F1Y6 whole entry E193A): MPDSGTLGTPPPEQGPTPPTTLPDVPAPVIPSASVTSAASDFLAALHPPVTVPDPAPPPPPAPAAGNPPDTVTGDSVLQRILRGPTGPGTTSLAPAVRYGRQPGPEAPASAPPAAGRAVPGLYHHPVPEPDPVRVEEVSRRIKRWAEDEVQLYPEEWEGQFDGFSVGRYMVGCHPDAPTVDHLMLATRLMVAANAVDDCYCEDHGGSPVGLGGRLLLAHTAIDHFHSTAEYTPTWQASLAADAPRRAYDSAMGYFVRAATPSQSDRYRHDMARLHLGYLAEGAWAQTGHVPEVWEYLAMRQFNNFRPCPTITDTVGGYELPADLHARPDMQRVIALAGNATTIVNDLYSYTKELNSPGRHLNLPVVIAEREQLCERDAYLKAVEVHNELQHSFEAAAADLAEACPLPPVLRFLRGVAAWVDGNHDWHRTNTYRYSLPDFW

For the compound `CC(C)=CCC/C(C)=C(\C)COP(=O)(O)OP(=O)(O)O` [2MGPP, 2-methylgeranyl diphosphate], the “GC-MS of pentane-extracted products” value is “overnight incubation of the E193A, E193L, and E193D mutants with 2MGPP”.
